Data on 13 compounds can be found in publication PMC7801115, “Preclinical in vitro screening of newly synthesised amidino substituted benzimidazoles and benzothiazoles” (Journal of Enzyme Inhibition and Medicinal Chemistry, 2021).

Data set [1] can be described thus: Metabolic stability in liver microsomes. Conditions: 60 min. The class given is in vitro ADME. As for the experimental part:
Tested compounds (final concentration of 1 µM, 0.1% DMSO), as well as testosterone and propranolol as positive controls and caffeine as negative control were incubated in phosphate buffer (50 mM, pH 7.4) for 60 min at 37 °C with liver microsomes (human and mouse) in the absence and presence of the NADPH cofactor. The NADPH generating system was prepared in phosphate buffer and consisted of nicotinamide adenine dinucleotide phosphate (NADP, 0.38 mM), glucose-6-phosphate (1.49 mM), glucose-6-phosphate dehydrogenase (1.5 U) and magnesium chloride (0.1 mM). Aliquots were taken at different time points (0, 10, 20, 30, 45 and 60 min) and reaction was terminated by addition of a MeCN/MeOH (2:1) mixture, containing diclofenac as internal standard. Samples were then centrifuged (at 4500 rpm, at 4 °C, for 30 min) and resulting supernatants were subjected to LC-MS/MS analysis. The in vitro half life (t½) was determined from the slope of the linear regression of ln % parent compound remaining versus incubation time. In vitro intrinsic clearance, expressed as µl/min/mg liver, was determined from in vitro half life (t½) and normalised for the protein concentration in the incubation mixture. Predicted in vivo hepatic clearance was determined from in vitro intrinsic clearance assuming 52.5 mg of protein/g of liver and using constant values for liver weight/body weight [g/kg] (25.7 for human, 87.5 for mouse) and liver blood flow (LBF) [ml/min/kg] (21 for human and 131 for mouse).
All ADME samples were analysed on a Sciex API 4000 or Sciex API4500 Triple Quadrupole Mass Spectrometer (Sciex, Framingham, MA, USA) coupled to a UHPLC System (Shimadzu Nexera X2; Shimadzu, Kyoto, Japan). Samples were injected onto an UPLC column (HALO2 C18, 2.1 × 20 mm, 2 µm or Phenomenex Luna Omega Polar C18, 30 × 2.1 mm, 1.6 µm) and eluted with a gradient at temperature of 50 °C. The mobile phase was composed of acetonitrile (with 0.1% formic acid) and 0.1% formic acid in deionised water. A total run time was 1 or 1.5 min, with the flow rate of 0.7 ml/min (under gradient conditions). A positive ion mode with turbo spray, an ion source temperature of 500 °C and a dwell time of 150 ms were utilised for mass spectrometric detection. Multiple reaction monitoring (MRM) was used at the specific transitions for each compound/control tested: compound 5c: 361.9 → 304.9; compound 5d: 344.8 → 287.9; compound 5e: 349.8 → 292.9; compound 5 g: 350.8 → 293.9; compound 5 h: 344.0 → 286.9; compound 6a: 276.9 → 220.0; compound 5 b: 319.0 → 262.0; compound 6 b: 302.1 → 245.1; compound 6c: 344.9 → 288.0; compound 6d: 333.0 → 276.0; compound 6e: 316.1 → 259.0; compound 6f: 327.1 → 270.0; compound 6 g: 377.1 → 320.1; testosterone: 289.3→ 97.1; propranolol: 260.1 → 182.8; caffeine: 195.2 → 138.1; acebutolol: 337.2 → 116.2, nicardipine: 480.2 → 315.0; verapamil: 455.4 → 165.1; amprenavir: 506.2 → 245.4; diclofenac: 296.1 → 213.7 or 296.2 → 215.3; eucatropine: 292.2 → 109.1; benfluorex: 352.1 → 230.3, and warfarin: 309.2 → 163.2
(Microsomes from liver hold many membrane-bound enzymes, among them those of drug oxidation.)

Another data set has as its system A549. Description: BrdU proliferation assay, 2D cell culture. The class given is cell-based. The following applies: Homo sapiens, A549, 2D cell culture, ±SD, N = 2. How it is done: Cells were grown in 96 well cell star polystyrene plates. 10,000 cells/well were seeded in wells 4 h prior the treatment with different compounds concentrations and incubated for 72 h. A cell viability assay was performed according to the manufacturer’s instruction, using CellTiter 96 aqueous solution, MTS kit (Promega, Madison, WI, USA). After 0.5–2 h of cell incubation with MTS in 2 D cell culture, the plates were read using PE EnVision absorbance at 490 nm. The results for each of tested compounds are reported as growth percentages from two independent concentrations curves compared with the untreated control cells after drug exposure. Since we prefer homogeneous assays (mix and read procedures) and therefore MTS is more practical (one step less than MTT). MTS is more sensitive and accurate in comparison with MTT assay.
Proliferation assay was performed using Cell Proliferation ELISA, BrdU (Sigma, St. Louis, MO, USA). Briefly, 48 h hours after compound addition, 10 µM of BrdU was added to each well and incubated for following 24 h. After incubation, single cell suspension was made for 3 D cell culture in the new 96 well plate. Plates were centrifuged and supernatants were removed from each plate (for 2 D and 3 D cell culture) followed by 60 min incubation at 60° C. The rest of the proliferation assay was performed according to the manufacturer instructions.
Calculation of IC50 data, curves and QC analysis is made by using Excel tools and GraphPadPrism software (La Jolla, CA), v. 5.03. In brief, individual concentration–effect curves are generated by plotting the logarithm of the tested concentration of tested compounds (X) versus corresponding percent inhibition values (Y) using least squares (ordinary) fit. […] QC criteria parameters (Z', S:B, R2, HillSlope) were checked for every IC50 curve.

A further data set can be described thus: Kinetic solubility. It is filed as physicochemical. Conditions: aqueous buffer, kinetic from dmso stock, phosphate buffer 50 mM, pH 7.4, 1% DMSO, 37 °C. How it is done: Test compounds and assay controls (sulfaphenazole and α-naphtoflavone) were serially diluted in DMSO by factor 3.3x, 3x, 3.3x and 3x, resulting in a total of 5 different concentrations. Phosphate buffer (50 mM, pH 7.4) was spiked with diluted test compounds and controls with final concentration range in the assay as follows: 100, 30, 10, 3 and 1 µM (1% DMSO). Plate was then incubated by gentle shaking (200–300 rpm) for 1 h and 45 min at 37 °C. After additional15 min on room temperature (without shaking), plate absorbance at 620 nm was measured with microplate reader Tecan, Infinite F500 (total incubation time = 2 h).

Structures are written as SMILES. Bounds are passed on as bounds.

With `c1ccc2sc(-c3nc4cc(C5=NCCCN5)ccc4[nH]3)cc2c1` [Compound 6d, 2-(Benzo[b]thiophen-2-yl)-5(6)–(3,4,5,6-tetrahydropyrimidin-1-ium-2-yl)benzimidazole chloride], in data set [1], the “Microsomes (1 µM) Predicted in vivo hep CL, Human” value is recorded as <30 %LBF and the “Microsomes (1 µM) Predicted in vivo hep CL, Mouse” value is 71 %LBF. The IC50 with A549 was > 50 µM. In the data set “Kinetic solubility”, this compound gave a kinetic solubility at 2 h of 10 to 30 µM.

On to `c1ccc2c(c1)cc(-c1nc3cc(C4=NCCCN4)ccc3[nH]1)c1ccccc12` [Compound 6g, 2-(Phenanthrene-9-yl)-5(6)–(3,4,5,6-tetrahydropyrimidin-1-ium-2-yl)benzimidazole chloride], for which the “Microsomes (1 µM) Predicted in vivo hep CL, Human” value in data set [1] was <30 %LBF. Besides, the concentration for half-maximal inhibition (IC50) in the data set on A549 is > 50 µM. This compound also had a kinetic solubility at 2 h in “Kinetic solubility” of 30 to 100 µM.

As for `Cl.c1ccc2cc(-c3nc4ccc(C5=NCCCN5)cc4s3)ccc2c1` [Compound 5h, 2-(Naphthalene-2-yl)-6–(3,4,5,6-tetrahydropyrimidin-1-ium-2-yl)benzothiazole chloride], in data set [1], the “Microsomes (1 µM) Predicted in vivo hep CL, Human” value was <30 %LBF and the “Microsomes (1 µM) Predicted in vivo hep CL, Mouse” value is <30 %LBF. In the data set on A549, this compound came in with an IC50 of 10 ± 0.78 µM. Also, the kinetic solubility at 2 h in “Kinetic solubility” fell in the range of 10 to 30 µM.

Regarding `Cl.c1ccc2sc(-c3nc4ccc(C5=NCCCN5)cc4s3)nc2c1` [Compound 5g, 2-(Benzothiazole-2-yl)-6–(3,4,5,6-tetrahydropyrimidin-1-ium-2-yl)benzothiazole chloride], in data set [1], the “Microsomes (1 µM) Predicted in vivo hep CL, Human” value is given as <30 %LBF and the “Microsomes (1 µM) Predicted in vivo hep CL, Mouse” value was <30 %LBF. The compound also had an IC50 with A549 of 7 ± 2.31 µM. Besides, the solubility (kinetic) at 2 h in “Kinetic solubility” lay within 30 to 100 µM.

Consider `Cl.c1ccc2sc(-c3nc4ccc(C5=NCCCN5)cc4s3)cc2c1` [Compound 5e, 2-(Benzo[b]thiophen-2-yl)-6–(3,4,5,6-tetrahydropyrimidin-1-ium-2-yl)benzothiazole chloride], for which the “Microsomes (1 µM) Predicted in vivo hep CL, Human” value in data set [1] is given as <30 %LBF. Further, half-maximal inhibition with A549 (IC50) required 16 ± 0.39 µM. In “Kinetic solubility”, this compound yielded a kinetic solubility at 2 h of 30 to 100 µM.

For `Cl.N#Cc1ccc(-c2nc3ccc(C4=NCCCN4)cc3s2)cc1` [Compound 5b, 2–(4-Cyanophenyl)-6–(3,4,5,6-tetrahydropyrimidin-1-ium-2-yl)benzothiazole chloride], in data set [1], the “Microsomes (1 µM) Predicted in vivo hep CL, Human” value is <30 %LBF and the “Microsomes (1 µM) Predicted in vivo hep CL, Mouse” value is reported as <30 %LBF. In the data set on A549, the IC50 is > 50 µM. For the same compound, the solubility (kinetic) at 2 h in the data set “Kinetic solubility” was > 100 µM.

On to `Cl.c1ccc2nc(-c3nc4ccc(C5=NCCCN5)cc4s3)ccc2c1` [Compound 5d, 2-(Quinoline-2-yl)-6–(3,4,5,6-tetrahydropyrimidin-1-ium-2-yl)benzothiazole chloride], for which, in data set [1], the “Microsomes (1 µM) Predicted in vivo hep CL, Human” value is recorded as <30 %LBF and the “Microsomes (1 µM) Predicted in vivo hep CL, Mouse” value is listed as <30 %LBF. Besides, in the data set on A549, the IC50 came out at 1 µM. The kinetic solubility at 2 h in the data set “Kinetic solubility” fell in the range of 30 to 100 µM.

As to `c1ccc(-c2nc3cc(C4=NCCCN4)ccc3[nH]2)cc1` [Compound 6a, 2-Phenyl-5(6)–(3,4,5,6-tetrahydropyrimidin-1-ium-2-yl)benzimidazole chloride], in data set [1], the “Microsomes (1 µM) Predicted in vivo hep CL, Human” value is 56 %LBF and the “Microsomes (1 µM) Predicted in vivo hep CL, Mouse” value is given as 41 %LBF. In the data set on A549, this compound had an IC50 of 11 ± 5.56 µM. Also, in “Kinetic solubility”, the solubility (kinetic) at 2 h was > 100 µM.

For `c1ccc2cc(-c3nc4cc(C5=NCCCN5)ccc4[nH]3)ccc2c1` [Compound 6f, 2-(Naphthalene-2-yl)-5(6)–(3,4,5,6-tetrahydropyrimidin-1-ium-2-yl)benzimidazole chloride], in data set [1], the “Microsomes (1 µM) Predicted in vivo hep CL, Human” value is reported as <30 %LBF and the “Microsomes (1 µM) Predicted in vivo hep CL, Mouse” value is 77 %LBF. Further, in the data set on A549, the IC50 was > 50 µM. The compound further showed a solubility (kinetic) at 2 h in the data set “Kinetic solubility” of 30 to 100 µM.

`c1ccc2c(-c3nc4ccc(C5=NCCCN5)cc4[nH]3)c[nH]c2c1` [Compound 6e, 2-(1H-Indol-3-yl)-5(6)–(3,4,5,6-tetrahydropyrimidin-1-ium-2-yl)benzimidazole chloride]: in data set [1], the “Microsomes (1 µM) Predicted in vivo hep CL, Human” value was <30 %LBF and the “Microsomes (1 µM) Predicted in vivo hep CL, Mouse” value is recorded as 78 %LBF. In the data set with A549, the IC50 is > 50 µM. In “Kinetic solubility”, this compound gave a kinetic solubility at 2 h of 10 to 30 µM.

As for `Cl.FC(F)(F)c1ccc(-c2nc3ccc(C4=NCCCN4)cc3s2)cc1` [Compound 5c, 2–(4-Trifluoromethylphenyl)-6–(3,4,5,6-tetrahydropyrimidin-1-ium-2-yl)benzothiazole chloride], in data set [1], the “Microsomes (1 µM) Predicted in vivo hep CL, Human” value is listed as <30 %LBF and the “Microsomes (1 µM) Predicted in vivo hep CL, Mouse” value is given as <30 %LBF. The IC50 in the data set with A549 was determined as 48 ± 0.73 µM. Besides, the solubility (kinetic) at 2 h in “Kinetic solubility” is > 100 µM.

Consider `FC(F)(F)c1ccc(-c2nc3cc(C4=NCCCN4)ccc3[nH]2)cc1` [Compound 6c, 2–(4-Trifluoromethylphenyl)-5(6)–(3,4,5,6-tetrahydropyrimidin-1-ium-2-yl)benzimidazole chloride], for which, in data set [1], the “Microsomes (1 µM) Predicted in vivo hep CL, Human” value is recorded as <30 %LBF and the “Microsomes (1 µM) Predicted in vivo hep CL, Mouse” value is given as <30 %LBF. Further, in the data set with A549, the IC50 was > 50 µM. In the data set “Kinetic solubility”, the solubility (kinetic) at 2 h was > 100 µM.

Consider `N#Cc1ccc(-c2nc3cc(C4=NCCCN4)ccc3[nH]2)cc1` [Compound 6b, 2–(4-Cyanophenyl)-5(6)–(3,4,5,6-tetrahydropyrimidin-1-ium-2-yl)benzimidazole chloride], for which, in data set [1], the “Microsomes (1 µM) Predicted in vivo hep CL, Human” value was <30 %LBF and the “Microsomes (1 µM) Predicted in vivo hep CL, Mouse” value was <30 %LBF. Moreover, in the data set with A549, the IC50 is > 50 µM. Moreover, the solubility (kinetic) at 2 h in “Kinetic solubility” is > 100 µM.

One may read the IC50 as the midpoint of a concentration-inhibition curve. As a reminder, the kinetic solubility is the concentration staying in solution when a stock, usually in DMSO, is diluted into the medium.
